Earlier results, collected in patent US10279004B2, “Methods and compositions for enhancing or maintaining fertility” (Quality IP Holdings, LLC, priority 2016, dated 2019).

Columns and labels:
hGH = conditions: for effect on hGH: other amino acids, literature
[1] = subcutaneous injection of 0.06 IU in hGH deficient subjects

Compound | effect on hGH (hGH) | also measured
NCCCC[C@H](N)C(=O)O [lysine] | marked increases in hGH | –
N=C(N)NCCC[C@H](N)C(=O)O [arginine] | – | elevation of serum hGH levels (hGH; 30 g in males): 8.6 fold; increase in hGH levels (hGH; intravenous infusion of 183 mg/kg body weight in females): > 20 fold
CSCC[C@H](N)C(=O)O [methionine] | marked increases in hGH | –
N[C@@H](Cc1ccccc1)C(=O)O [phenylalanine] | marked increases in hGH | –
hGH: human growth hormone, available in injectable forms | – | mean level of hGH reached [1]: 0.4 ng/mL; probability of clinical pregnancy (administration during ovarian stimulation phase of IVF cycles): increase the probability of clinical pregnancy; body composition in hGH-deficient adults (within months of hGH treatment): gains in lean body mass, skin thickness, and muscle mass are observed
N[C@@H](Cc1c[nH]cn1)C(=O)O [histidine] | marked increases in hGH | –
NCCC[C@H](N)C(=O)O [ornithine] | marked increases in hGH | –
